Data published in publication PMC7926793, “Synthesis and Biological Evaluation of 1-(Diarylmethyl)-1H-1,2,4-triazoles and 1-(Diarylmethyl)-1H-imidazoles as a Novel Class of Anti-Mitotic Agent for Activity in Breast Cancer” (Pharmaceuticals, 2021).
Like-named read-outs stand apart in the source and are kept apart here.

Experiments:
SK-MEL-5 = test: NCI 60 cell line screen (Melanoma); assay type: cell-based, human
SN12C = test: NCI 60 cell line screen (Renal Cancer); assay type: cell-based, human
OVCAR-8 = test: NCI 60 cell line screen (Ovarian Cancer); assay type: cell-based, human
A498 = test: NCI 60 cell line screen (Renal Cancer); assay type: cell-based, human
UACC-62 = test: NCI 60 cell line screen (Melanoma); assay type: cell-based, human
SK-MEL-28 = test: NCI 60 cell line screen (Melanoma); assay type: cell-based, human; conditions: SK-MEL-28, single dose 10 µM
HS 578T = test: NCI 60 cell line screen (Breast Cancer); assay type: cell-based, human
[1] = system: MCF-7 human breast cancer cells; test: alamarBlue cell viability assay; assay type: cell-based; conditions: 72 h; for IC50: alamarBlue, read-out: Antiproliferative Activity MCF-7 Cells IC50
[2] = system: MDA-MB-231 human breast cancer cells; test: alamarBlue cell viability assay; assay type: cell-based; conditions: Homo sapiens, MDA-MB-231, 72 h, read-out: Antiproliferative Activity MDA-MB-231 Cells IC50
ACHN = test: NCI 60 cell line screen (Renal Cancer); assay type: cell-based, human
SK-OV-3 = test: NCI 60 cell line screen (Ovarian Cancer); assay type: cell-based, human
TK-10 = test: NCI 60 cell line screen (Renal Cancer); assay type: cell-based, human; conditions: TK-10, single dose 10 µM
U251 (AC in Table 3) = test: NCI 60 cell line screen (CNS Cancer); assay type: cell-based, human
NCI-H23 = test: NCI 60 cell line screen (Non-Small Cell Lung Cancer); assay type: cell-based, human
KM12 = test: NCI 60 cell line screen (Colon Cancer); assay type: cell-based, human
SF-268 = test: NCI 60 cell line screen (CNS Cancer); assay type: cell-based, human
OVCAR-4 = test: NCI 60 cell line screen (Ovarian Cancer); assay type: cell-based, human
SW-620 = test: NCI 60 cell line screen (Colon Cancer); assay type: cell-based, human
SNB-75 = test: NCI 60 cell line screen (CNS Cancer); assay type: cell-based, human
T-47D = test: NCI 60 cell line screen (Breast Cancer); assay type: cell-based, human; conditions: single dose 10 µM
MDA-MB-231/ATCC = test: NCI 60 cell line screen (Breast Cancer); assay type: cell-based, human

Question: With `COc1ccc(C(c2cc(OC)c(OC)c(OC)c2)n2ccnc2)cc1O` (stereo not drawn) [21l, 5-((1H-Imidazol-1-yl)(3,4,5-Trimethoxyphenyl)Methyl)-2-Methoxyphenol] as the compound, how does the GI50 (SK-MEL-5; Homo sapiens, SK-MEL-5, NCI 5 dose assay) read?
Answer: 367 nM

Question: What about the Growth percentage (SK-MEL-5; SK-MEL-5, single dose 10 µM) of the same compound?
Answer: -12.88%

Question: What about the GI50 (SN12C; Homo sapiens, NCI 5 dose assay) of the same compound?
Answer: 910 nM

Question: What about the Growth percentage (SN12C; single dose 10 µM) of the same compound?
Answer: 37.55%

Question: And the GI50 (OVCAR-8; Homo sapiens, OVCAR-8, NCI 5 dose assay)?
Answer: 450 nM

Question: And the Growth percentage (OVCAR-8; OVCAR-8, single dose 10 µM)?
Answer: 10.28%

Question: And the Growth percentage (A498; A498, single dose 10 µM)?
Answer: 8.04%

Question: And the GI50 (A498; Homo sapiens, A498, NCI 5 dose assay)?
Answer: 304 nM

Question: And the GI50 (UACC-62; Homo sapiens, UACC-62, NCI 5 dose assay)?
Answer: 668 nM

Question: And the Growth percentage (UACC-62; UACC-62, single dose 10 µM)?
Answer: 36.48%

Question: What about the Growth percentage (SK-MEL-28) of the same compound?
Answer: 62.95%

Question: And the GI50 (HS 578T; Homo sapiens, NCI 5 dose assay)?
Answer: 414 nM

Question: What about the Growth percentage (HS 578T; single dose 10 µM) of the same compound?
Answer: 29.10%

Question: And the IC50 [1]?
Answer: 132 ± 7 nM

Question: What about the IC50 ([1]; Homo sapiens, MCF7, 72 h) of the same compound?
Answer: 130 nM

Question: What about the viability at 1 µM ([1]; Homo sapiens, MCF7, 1 μM, read-out: cell viability (viable cells)) of the same compound?
Answer: 31%

Question: What about the IC50 [2] of the same compound?
Answer: 237 ± 40 nM

Question: What about the GI50 (ACHN; Homo sapiens, NCI 5 dose assay) of the same compound?
Answer: 693 nM

Question: What about the Growth percentage (ACHN; single dose 10 µM) of the same compound?
Answer: 42.41%

Question: And the GI50 (SK-OV-3; Homo sapiens, SK-OV-3, NCI 5 dose assay)?
Answer: 465 nM

Question: What about the Growth percentage (SK-OV-3; SK-OV-3, single dose 10 µM) of the same compound?
Answer: 21.78%

Question: What about the Growth percentage (TK-10) of the same compound?
Answer: 52.86%

Question: What about the GI50 (U251 (AC in Table 3); Homo sapiens, U-251, cell line printed AC, NCI 5 dose assay) of the same compound?
Answer: 391 nM

Question: And the Growth percentage (U251 (AC in Table 3); U251, single dose 10 µM)?
Answer: 15.52%

Question: What about the GI50 (NCI-H23; Homo sapiens, NCI-H23, NCI 5 dose assay) of the same compound?
Answer: 882 nM

Question: What about the Growth percentage (NCI-H23; NCI-H23, single dose 10 µM) of the same compound?
Answer: 38.92%

Question: And the GI50 (KM12; Homo sapiens, KM12, NCI 5 dose assay)?
Answer: 389 nM

Question: And the Growth percentage (KM12; KM12, single dose 10 µM)?
Answer: 17.05%

Question: And the GI50 (SF-268; Homo sapiens, SF-268, NCI 5 dose assay)?
Answer: 731 nM

Question: What about the Growth percentage (SF-268; SF-268, single dose 10 µM) of the same compound?
Answer: 39.64%

Question: And the GI50 (OVCAR-4; Homo sapiens, OVCAR-4, NCI 5 dose assay)?
Answer: 3440 nM

Question: What about the Growth percentage (OVCAR-4; OVCAR-4, single dose 10 µM) of the same compound?
Answer: 73.56%

Question: What about the GI50 (SW-620; Homo sapiens, SW-620, NCI 5 dose assay) of the same compound?
Answer: 387 nM

Question: And the Growth percentage (SW-620; SW-620, single dose 10 µM)?
Answer: 28.61%

Question: What about the GI50 (SNB-75; Homo sapiens, SNB-75, NCI 5 dose assay) of the same compound?
Answer: 192 nM

Question: And the Growth percentage (SNB-75; SNB-75, single dose 10 µM)?
Answer: 56.72%

Question: And the Growth percentage (T-47D)?
Answer: 42.62%

Question: What about the GI50 (MDA-MB-231/ATCC; Homo sapiens, NCI 5 dose assay) of the same compound?
Answer: 664 nM

Question: What about the Growth percentage (MDA-MB-231/ATCC; single dose 10 µM) of the same compound?
Answer: 34.75%
